Test results reported in article PMC5282547, “The Proline/Arginine Dipeptide from Hexanucleotide Repeat Expanded C9ORF72 Inhibits the Proteasome” (eNeuro, 2017).
Entries after “also recorded” stand apart in the source; their conditions may differ. Where a SMILES comes first, the peptide text is derived from it. The star is where a group is joined. Cbz = O=C(OCc1ccccc1)*

Legend:
motor neurons [1] = experiment: Motor neuron survival with IU1 co-treatment; type: cell-based, rat
Description: Days in vitro (DIV)14 mixed spinal cord cultures were exposed to PR20 or GR20 by addition of synthetic peptide to the media one time. Cultures were fixed 5 d later with freshly prepared 4% paraformaldehyde for 20 min, washed extensively with 0.1 M PBS, pH 7.4, and immunostained with SMI32 to identify motor neurons. […] Motor neurons were counted in three nonoverlapping, randomly selected fields on a coverslip using a 5[times objective, and the values from a single coverslip averaged.
For experiments involving IU1, DIV14 cultures were treated with PR20 or its vehicle, and every other day, IU1 (or vehicle) was added to the culture media to achieve a final concentration of 5 µM. At DIV19, cultures were fixed and motor neuron number determined as described above.

motor neurons [2] = experiment: Motor neuron survival in mixed spinal cord cultures (SMI32 counts), LD50 determination; type: cell-based, rat
Description: Mixed spinal cord neuron cultures were prepared as described previously ([Mojsilovic-Petrovic et al., 2006]). Briefly, an astrocyte feeder layer was prepared from the cortex of newborn Sprague Dawley rat pups [postnatal day 2 (P2)] and grown to ∼80% confluency. Subsequently, dissociated embryonic day 15 (E15) spinal cord neurons were added. One to two days later, AraC ([…]) (catalog #C6645; Sigma) was added for 24 h to arrest astrocyte proliferation. Cultures were maintained in glia-conditioned medium supplemented with the following trophic factors (1.0 ng/ml each): human neurotrophin-3, human neurotrophin-4, human brain-derived neurotrophic factor, and rat ciliary neurotrophic factor (Alomone Labs). Half of the culture medium was replaced on a biweekly basis.
Days in vitro (DIV)14 mixed spinal cord cultures were exposed to PR20 or GR20 by addition of synthetic peptide to the media one time. Cultures were fixed 5 d later with freshly prepared 4% paraformaldehyde for 20 min, washed extensively with 0.1 M PBS, pH 7.4, and immunostained with SMI32 to identify motor neurons. Immunopositive cells >25 µm in diameter are motor neurons based on their costaining for peripherin, ChAT, and islet 1/2 ([Mojsilovic-Petrovic et al., 2006]). Motor neurons were counted in three nonoverlapping, randomly selected fields on a coverslip using a 5[times objective, and the values from a single coverslip averaged. The results of 3-5 independently treated coverslips were the basis and means and variance used in statistical analysis. Each experiment was repeated with independently generated culture 4+ times ([Mojsilovic-Petrovic et al., 2006]).
Motor neuron survival 5 d later was determined. Once the approximate LD50 was determined, we repeated the analysis with more closely spaced concentrations for a more precise definition of the LD50. Determination of the LD50 of MG132 was accomplished in an identical manner.

[3] = test system: ubiquitin-proteasome system; experiment: MG-132 flux assay (flux of ubiquitylated substrates through the UPS); type: cell-based, rat
Description: MG-132 (Sigma) was used to inhibit proteasomal function. Cells were initially treated with PR20 for a total of 48 h using the method outlined in PR20 treatment for biochemical assays. Four hours prior to lysis, these cells were treated with MG-132 or vehicle. The MG-132 was kept in a stock solution in DMSO. This was added directly to culture to achieve a final concentration of 5 μM. Cells were then lysed in RIPA buffer and immunoblotted for ubiquitin.
Ubiquitin analysis requires the use of deubiquitinase (DUB) inhibitors. Lysis without these inhibitors runs the risk of degradation of the substrates to be targeted. As such, N-ethylmaleimide (Sigma), a potent DUB inhibitor, was used in the lysis buffer. […] The remainder of the lysis procedure follows Cell lysis.
To test for group differences in the flux assay, a permutation test was used. This is a nonparametric statistical test that was implemented in MATLAB. […] The test first quantifies this by taking the average of each experimental group and then finding the difference of ratios. It then permutes two samples located in two groups randomly, and determines that difference between averages again. This is repeated 50,000 times, and a histogram is plotted. This histogram represents the distribution of random noise in the sample. Since a higher difference in the +MG132/−MG132 ratio is a more “significant” result, the percentage of the random noise produced from 50,000 permutations that is higher in magnitude than the true difference (calculated from un-permuted data) is the p value.
Permutations of a data point in a +MG132 into a group labeled −MG132 (or vice versa) were not allowed. […] Thus, this group difference was not interesting to us.

Dendra2 = experiment: Optical pulse labeling of Dendra2; type: cell-based, rat; conditions: vehicle 29.6 h
Description: (§1) Primary spinal neurons were dissected from E15 rat pups and cultured at a density of 2.5 × 10^5 cells/ml on a laminin/poly-lysine-coated 96-well plate in motor neuron media. Four days after plating, neurons were transfected with Lipofectamine 2000 (Invitrogen). DNA-Lipofectamine mixtures were incubated with neurons for 20 min followed by rinsing. Neurons were then placed in 100 µL of conditioned media that was collected immediately prior to transfection and half fresh motor neuron media containing 4 µM PR20, resulting in a final concentration of 2 µM PR20.
(§2) Optical pulse labeling experiments were performed using an automated microscopy platform previously described by [Arrasate et al. (2004)] and [Barmada et al. (2014)]. A Nikon Eclipse Ti inverted microscope equipped with a PerfectFocus system, 20× objective lens and an Andor iXon3 897 EMCCD camera were used to acquire images. Samples were illuminated with a Sutter Instruments Lamba XL lamp. The microscope and related components were encased in custom-built plexiglass enclosure set to maintain the temperature at 37°C and CO2 at 5%. Semrock GFP and TRITC filters were used for excitation and detection. A Semrock 405-nm long-pass filter was used for photoactivation. Image acquisition and stage movements were accomplished in an automated fashion using µManager and original code written in BeanShell. For all experiments, photoconversion occurred 24 h following transfection. GFP and TRITC images were acquired immediately following activation and subsequently every 2 h for 12 h. Images were acquired in a similar 12-h window starting 48 h after PR20 treatment. Using in-house image analysis scripts, neuronal cell bodies were identified based on their fluorescent intensity and morphology, and a ROI was drawn around the perimeter of each cell at each time. Single-cell TRITC intensity values were recorded and used to fit a first order exponential decay curve for individual neurons and calculate a Dendra2-light chain 3 (LC3) half-life for each cell. […]

Dendra2-LC3 = experiment: Autophagic flux assay, optical pulse labeling of Dendra2-LC3; type: cell-based, rat
Description: as §1, §2

[4] = test system: U2OS cells and human astrocytes; conditions: cited from earlier work
Text: The difficulty of distinguishing between toxic HRE mRNA and DPR proteins has impeded our understanding of the mechanism underlying C9ORF72 HRE pathophysiology. As reported in Science ([Kwon et al., 2014]), the McKnight lab devised a strategy to overcome this problem: they studied U2OS cells and human astrocytes directly exposed to synthetic DPR proteins. […] We built upon this approa ...

[5] = test system: mixed spinal cord cultures; experiment: Cellular accumulation and disposal of HA-tagged DPR (immunoblot of cell lysates, continuous exposure or 2-h pulse-chase)
Description: Confluent dishes of astrocyte neuron cocultures at 37°C had volumes equalized to 2 ml of cell culture media each. Approximately 300 μl of media from each dish was removed and pooled with other dishes, PR20 stock solution was added, and the mixture was then added back to the corresponding culture dish, so that each dish contained a final concentration of 2 μM. All plates were incubated with PR20 for 48 h.
Lysis buffer was prepared containing 1% (v/v) protease inhibitor cocktail, 1% (v/v) PMSF, and 1% (v/v) leucine in 1% RIPA buffer solution on ice. Culture dishes were washed once with ice-cold PBS to remove any remaining media. A total of 125 μl (35-mm dish), 150 μl (6-well plate), or 250 μL (60-mm dish) of lysis buffer was added to each plate, and cells were scraped into a cold 1.5-ml tube. Samples were sonicated for 30 s at 20% intensity, placed on a rotator at 4°C for 20 min, and then centrifuged for 15 min at 13,200 rpm. Supernatant was then removed from each tube for further analysis.
We investigated the fate of PR20 in mixed spinal cord cultures through immunoblotting and immunocytochemistry. […] To gain further insight into the kinetics of the observed decrease in PR20 levels in cell lysates over time, we pulsed cells with 2 µM PR20 for 2 h, washed, replaced with fresh media (lacking PR20), and made cell lysates at regular intervals thereafter. […] To more easily follow GR20 by immunoblotting, we applied 10 µM GR20 to cultures and performed the same kinetic analysis as described in Figure 1D.

[6] = 10 µM in media, continuous exposure

Molecule: Cc1cc(C(=O)CN2CCCC2)c(C)n1-c1ccc(F)cc1 [IU1]
- effect of IU1 on MG132-induced reduction in motor neuron number (motor neurons [1]; 5 µM IU1, 150 nM MG132, 5 d): reversed
- effect of IU1 on PR20-induced motor neuron death (motor neurons [1]; 5 µM IU1 every other day with PR20, 5 d, p < 0.05): blocks the toxic effects; also recorded: rescued to control levels; also recorded: prevents this effect
- effect of IU1 alone on motor neuron survival (motor neurons [1]; 5 µM IU1 every other day, vehicle-treated cells, 5 d): not toxic; also recorded: did not influence the survival

Molecule: CC(C)C[C@@H](C=O)NC(=O)[C@H](CC(C)C)NC(=O)[C@H](CC(C)C)NC(=O)OCc1ccccc1 [MG132, reference compound] (Cbz-Leu-Leu-Leu-aldehyde)
- LD50, motor neuron number (motor neurons [2]; added one time to mixed spinal cord cultures, counted 5 d later): 100 to 150 nM
- proteasomal flux versus control ([3]; 150 nM MG132 48 h, then 5 µM MG132 or vehicle 4 h, n = 6, p = 0.027): statistically significant reduction
- Dendra2 half-life (Dendra2; MG132 (10 µM), p = 3.23 × 10^−5): 32.3 h
- motor neuron number compared with all other experimental groups (motor neurons [1]; 150 nM MG132, 5 d, p = 0.001): statistically significantly fewer motor neurons
- extension of Dendra2-LC3 half-life compared with control (Dendra2-LC3; 10 µM MG132, primary spinal neurons): 11.9 h

Molecule: GR20: synthetic, HA-tagged dipeptide repeat protein: glycine/arginine repeated 20 times
- toxicity to motor neurons at ∼20 times higher concentration than PR20 (motor neurons [2]; 5 d): not toxic
- proteasomal flux (difference in ubiquitin +/- MG-132) versus vehicle ([3]; peptide 48 h (PR20 2 µM), then MG-132 5 µM or vehicle 4 h, permutation test): neither influenced total ubiquitin levels nor proteasomal flux
- Dendra2 half-life (Dendra2; 2 µM peptide, not significantly different from vehicle): 31.0 h
- extension of Dendra2-LC3 half-life compared with control (Dendra2-LC3; 2 µM peptide, primary spinal neurons, single-cell optical pulse labeling): 1.5 h
- toxic concentration range [4]: 10 to 30 µM
- period of maximal accumulation in cells [5, 6]: first hour
- time point at which immunoblot signal is undetectable [5, 6]: 24 h
- earliest detection in cell lysates ([5]; 10 µM in media, continuous exposure, anti-HA immunoblot): 15 min
- lysate fractions with detectable Western blot signal at the 2-h time point ([5]; 2-h pulse-chase, 10 µM): soluble fraction only
- time point by which signal diminishes to a barely detectable level ([5]; 2-h pulse-chase, 10 µM): 4 h
- half-life of dipeptide in cells ([5]; immunoblot of mixed spinal cord culture lysates): on the orders of hours
- detectability by immunoblotting in lysates ([5]; single 2-h application of 2 µM): weakly detectable
